The target in assay [1] is T1, mu receptor (Rattus norvegicus, UniProt P33535).
T1 construct: rat whole brain minus cerebellum for mu was homogenized; from tissue; host or cells: brain of male Sprague Dawley rats, whole brain minus cerebellum, homogenate fraction
Description: opioid receptor binding assay, [3H] NAL (tritiated naloxone), mu receptor. The arrangement: species or system rat (Male Sprague Dawley), brain minus cerebellum. The conditions noted are these: for inhibition at 0.01 µM / inhibition at 0.1 µM: 20 min. How it is done:
This assay was conducted by the following procedure.
Male Sprague Dawley rats for mu site experiments were sacrificed via decapitation and the brains were removed. The brain tissue, rat whole brain minus cerebellum for mu was homogenized in a Teflon and glass tissue homogenizer. A supernatant I, pellet IV, fraction was frozen in a nitrogen freezer at 1.33 g/ml concentration and stored for not longer than five weeks prior to use. Pellets were rehydrated with physiological buffer prior to use.
The reaction was initiated by the addition of the resuspended tissue which had been preincubated at 37° C. for 20 minutes. The reaction mixture was incubated in a 37° C. water bath for 20 minutes. The reaction was terminated by rapid filtration, (Brandel Cell Harvestor), through Whatman GF/B glass filters that had been presoaked in Krebs-Hepes buffer pH 7.4. The filters were then washed 2x with 5 ml of ice cold Krebs-Hepes buffer pH 7.4. Washed filters were placed in scintillation vials and 10 ml RedySolv, (Brandel), was added and samples counted in a Searle D-300 beta counter. Means and standard error statistics were calculated for triplicate experimental determinations in certain cases. The incubation time for the reaction mixture was 20 minutes at 37° C.
Ki values were calculated using a minitab statistical program according to the following formula: [formula] wherein IC50 is the concentration at which 50% of the ^3 H ligand is displaced by the test compounds and KD is the dissociation constant for the ^3 H ligand at the receptor site. KD can be determined as described by Bennett, "Methods in Binding Studies", Neurotransmitter Receptor Binding, Yamamura, et al., ed., p. 57-90, Raven Press, N.Y. (1978) incorporated herein by reference.
In the Table, column 1 sets forth the Example Number of the compound evaluated, column 2 the Ki value in nanomolar (nM) at the mu receptor and columns 3 and 4 the percent displacement by the test compound at the indicated concentration, i.e., 10 nm or 100 nm.

For assay [2], the target named is T2, peripheral opioid receptors (Mus musculus, UniProt P42866).
T2 construct: Mice maintained (6 mice/cage) on 0.01M saccharin water with 1 g/1 morphine sulfate; from tissue; host or cells: living morphine-maintained mice (in vivo test; endogenous receptor)
Description: precipitated diarrhea in morphine-maintained mice (peripheral opioid activity) and comparison with the writhing test. Type of assay: in vivo. Particulars: for Ratio (AD50 mouse writhing test / ED50 mouse diarrhea test): higher ratio = greater relative antagonism of peripheral opioid receptors; for ED50: mouse, 0.5 h, morphine-maintained mice, antagonist subcutaneous or oral, 30 min observation. How it is done:
Determinations of peripheral opioid activity were conducted. Mice maintained (6 mice/cage) on 0.01M saccharin water with 1 g/1 morphine sulfate for a minimum of 10 days with mice averaging 3.0^+ g water/mouse/day for at least three days are used as subjects. The morphine water was removed 45 min. prior to injection with the proposed opioid antagonist. Initial testing consisted of 5 mice/dose of compound. The antagonist was given by the subcutaneous or oral, route of administration,and the mice were placed in 11-14"×4 7/12 I.D. clear plastic cylinders with white paper towels used for a floor.
The mice were then monitored visually for 30 minutes post-injection for the presence of jumping and of diarrhea. Jumping was scored as positive if at least one jump occurred in 30 min. Diarrhea was scored as positive when feces were moist enough to stain the white paper at the base of the cylinder. After 30 minutes of testing, the mice were placed back in original cages, put back on morphine water, and not tested again for 48 hrs. Lower doses of the antagonist compounds were tested until threshold doses for diarrhea were determined. Diarrhea is a peripherally mediated sign of precipitated opiate abstinence.
The extent of the effect on peripheral activity compared to central activity of the present compounds can-be determined by comparing the AD50 for the mouse writhing test with the ED50 for the mouse diarrhea test. The higher the ratio, the greater the relative antagonism of the peripheral opioid receptors by a particular compound.

In assay [3] the target is T3, opioid receptor (Mus musculus, UniProt P42866).
T3 construct: Five CF-1 male mice (Charles River, Portage, Mich.); from tissue; host or cells: living CF-1 male mice (in vivo test; endogenous receptor)
As to the kind of experiment: mouse writhing analgesis test: block of morphine-induced analgesia. Type of assay: in vivo, CF-1 male mice. Details: unit not given here. Particulars: dose of antagonist that reduced the inhibition of writhing produced by 1.25 mg/kg morphine sulfate to 50%; subcutaneous, 20 min before acetic acid. Here is the method: In order to determine in vivo opioid receptor antagonism, the mouse writhing analgesis test was used. Test compounds were measured for their ability to block morphine-induced analgesia.
Five CF-1 male mice (Charles River, Portage, Mich.), weighing approximately 20 g after being fasted overnight, were observed simultaneously for the writhing response. The writhing response was defined as a contraction of the abdominal musculature, followed by the extension of the hind limbs, and was induced by the intraperitoneal adminstration of 0.6% acetic acid in a volumne of 1 ml/100 g body weight. The observation period was 10 min. in duration, beginning 5 min. after injection of acetic acid. The percent inhibition of writhing was calculated from the average number of writhes in the control (non-drug) group. Each data point is the mean (±standarderror) for five mice. The ED50 was defined as the dose of agonist that inhibited mean writhing by 50%. […] Each mouse was only used once. All drugs were administered subcutaneously (1 ml/100 g bwt) 20 min. before the injection of acetic acid.
For orientation: An intraperitoneal irritant provokes the stretching counted in writhing tests.

Setting [4] is: read-out: % displacement at 10 nM, 10 nM test compound, [3H] naloxone 0.5 nM.
The mark [5] stands for this setting: read-out: % displacement at 100 nM, 100 nM test compound, [3H] naloxone 0.5 nM.
Where [6] appears, read: read-out: % displacement at 100 nM.

Where a name gives a salt, the structure may show the parent alone. Read-outs that look alike come from different tables or passages of the source.

T3 sequence (P42866 whole entry): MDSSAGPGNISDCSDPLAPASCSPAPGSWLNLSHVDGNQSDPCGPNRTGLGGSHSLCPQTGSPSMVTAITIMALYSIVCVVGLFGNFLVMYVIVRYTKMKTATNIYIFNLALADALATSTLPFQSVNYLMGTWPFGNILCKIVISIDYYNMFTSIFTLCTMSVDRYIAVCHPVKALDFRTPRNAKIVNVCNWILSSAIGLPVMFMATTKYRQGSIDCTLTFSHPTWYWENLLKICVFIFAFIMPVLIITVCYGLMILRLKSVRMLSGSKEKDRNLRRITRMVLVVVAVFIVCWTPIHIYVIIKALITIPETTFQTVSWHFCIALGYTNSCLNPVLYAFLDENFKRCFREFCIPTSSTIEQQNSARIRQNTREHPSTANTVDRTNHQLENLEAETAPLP
T2 sequence (P42866 whole entry): as above
T1 sequence (P33535 whole entry): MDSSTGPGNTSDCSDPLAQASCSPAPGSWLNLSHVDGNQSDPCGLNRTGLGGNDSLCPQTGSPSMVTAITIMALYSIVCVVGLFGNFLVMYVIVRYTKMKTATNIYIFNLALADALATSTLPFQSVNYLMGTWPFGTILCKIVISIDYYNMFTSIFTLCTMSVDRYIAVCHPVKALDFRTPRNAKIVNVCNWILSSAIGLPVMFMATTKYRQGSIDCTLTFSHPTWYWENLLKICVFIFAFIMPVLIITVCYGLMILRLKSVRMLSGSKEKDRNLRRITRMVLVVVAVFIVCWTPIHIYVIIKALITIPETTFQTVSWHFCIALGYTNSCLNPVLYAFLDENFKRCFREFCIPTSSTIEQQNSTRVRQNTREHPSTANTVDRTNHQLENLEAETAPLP

Consider `CNC(=O)CCCNC(=O)C(CCN1CC[C@@](C)(c2cccc(O)c2)[C@@H](C)C1)C1CCCCC1` (relative stereo) [Example 24, N-methyl-4-[[4-[4-(3-hydroxyphenyl)-3,4-dimethyl-1-piperidinyl]-2-cyclohexyl-1-oxobutyl]amino]butanamide monohydrochloride monohydrate], for which affinity in assay [1] was put at a Ki of 0.45 nM. For the same compound, in assay [1] (setting [4]), the inhibition at 0.01 µM came to 100%. Besides, the inhibition at 0.1 µM in assay [1] (setting [5]) is 100%. In assay [2], the “Ratio (AD50 mouse writhing test / ED50 mouse diarrhea test)” value is recorded as more than 400 and the ED50 (in general, the dose that gives a 50% effect, or the effect in half of the subjects) was 0.1 mg/kg. Besides, the AD50 in assay [3] is more than 40.

On to `C[C@H]1CN(CCC(C(=O)NCCC(=O)OCc2ccccc2)C2CCCCC2)CC[C@@]1(C)c1cccc(O)c1` (relative stereo) [Example 25, 3-[[2-cyclohexyl-4-[4-(3-hydroxyphenyl)-3,4-dimethyl-1-piperidinyl]-1-oxobutyl]amino]propanoic acid phenylmethyl ester hydrochloride monohydrate], for which, in assay [1], the Ki (as a rule, the equilibrium dissociation constant of an inhibitor or competing ligand from its target) is 0.22 nM. Besides, the inhibition at 0.01 µM in assay [1] (setting [4]) was determined as 100%. For the same compound, the inhibition at 0.1 µM in assay [1] (setting [5]) was determined as 100%. Besides, in assay [2], the “Ratio (AD50 mouse writhing test / ED50 mouse diarrhea test)” value is 40 and the ED50 was 0.29 mg/kg. The same compound came in with an AD50 in assay [3] of 11.5.

Regarding `C[C@H]1CN(CCC(C(=O)NCCC(=O)O)C2CCCCC2)CC[C@@]1(C)c1cccc(O)c1` (relative stereo) [Example 26, 3-[4-[3,4-dimethyl-4-(-3-hydroxyphenyl)-1-piperidinyl]-2-cyclohexyl-1-oxobutylamino]-propanoic acid monohydrate], the Ki in assay [1] was found to be 1.17 nM. Besides, the inhibition at 0.01 µM in assay [1] (setting [4]) amounted to 76%. Also, the inhibition at 0.1 µM in assay [1] (setting [5]) worked out at 91%. In addition, in assay [2], the “Ratio (AD50 mouse writhing test / ED50 mouse diarrhea test)” value was found to be 250 and the ED50 is 0.03 mg/kg. Moreover, in assay [3], the AD50 was determined as 7.5.

Regarding `C[C@H]1CN(CCC(C(=O)NCC(=O)O)C2CCCCC2)CC[C@@]1(C)c1cccc(O)c1` (relative stereo) [Example 27, 2-[[2-cyclohexyl-4-[4-(3-hydroxyphenyl)-3,4-dimethyl-1-piperidinyl]-1-oxobutyl]amino]-acetic acid monohydrate], affinity in assay [1] was put at a Ki of 0.91 nM. The inhibition at 0.01 µM in assay [1] (read-out: % displacement at 10 nM) is 92%. Also, in assay [1] (setting [5]), the inhibition at 0.1 µM is 99%. Further, in assay [2], the “Ratio (AD50 mouse writhing test / ED50 mouse diarrhea test)” value turned out to be 51 and the 50% effect level (ED50) was put at a dose of 0.3 mg/kg. In assay [3], this compound had an AD50 of 15.3.

`C[C@H]1CN(CCC(C(=O)NCCCC(=O)O)C2CCCCC2)CC[C@@]1(C)c1cccc(O)c1` (relative stereo) [Example 28, 4-[[2-cyclohexyl-4-[4-(3-hydroxyphenyl)-3,4-dimethyl-1-piperidinyl]-1-oxobutyl]amino]-butanoic acid monohydrate] displayed an inhibition constant Ki in assay [1] of 3.09 nM. Further, the inhibition at 0.01 µM in assay [1] (setting [4]) came out at 86%. Further, the inhibition at 0.1 µM in assay [1] (setting [5]) was 95%. For the same compound, in assay [2], the “Ratio (AD50 mouse writhing test / ED50 mouse diarrhea test)” value is recorded as more than 4000 and the ED50 came out at 0.01 mg/kg. The compound also yielded an AD50 in assay [3] of more than 40.

In turn, `CCOC(=O)CNC(=O)C(CC1CCCCC1)CN1CC[C@@](C)(c2cccc(O)c2)[C@@H](C)C1` (relative stereo) [Example 29, 2-[[3-[4-(3-hydroxyphenyl-3,4-dimethyl-1-piperidinyl]-2-cyclohexylmethyl-1-oxopropyl]amino]acetic acid ethyl estermonohydrochloride] registered a Ki in assay [1] of 2.94 nM. In addition, the inhibition at 0.01 µM in assay [1] (setting [4]) is 98%. Moreover, the inhibition at 0.1 µM in assay [1] (setting [5]) was 100%. Also, in assay [2], the “Ratio (AD50 mouse writhing test / ED50 mouse diarrhea test)” value came to 23 and the 50% effect level (ED50) was put at a dose of 0.17 mg/kg. The same compound showed an AD50 in assay [3] of 3.9.

In assay [1], `C[C@H]1CN(CC(CC2CCCCC2)C(=O)NCC(=O)O)CC[C@@]1(C)c1cccc(O)c1` (relative stereo) [Example 30, 2-[[3-[4-(3-hydroxyphenyl)-3,4-dimethyl-1-piperidinyl]-2-(cyclohexylmethyl)-1-oxopropyl]-amino]acetic acid monohydrate] registered a Ki of 0.42 nM. Besides, the inhibition at 0.01 µM in assay [1] (setting [4]) was 89%. Moreover, the inhibition at 0.1 µM in assay [1] (setting [5]) was 93%. Besides, in assay [2], the “Ratio (AD50 mouse writhing test / ED50 mouse diarrhea test)” value was more than 2353 and the 50% effective dose (ED50) came to 0.017 mg/kg. In assay [3], the AD50 is listed as more than 40.

With `CCNC(=O)CNC(=O)C(CC1CCCCC1)CN1CC[C@@](C)(c2cccc(O)c2)[C@@H](C)C1` (relative stereo) [Example 31, N-ethyl-2-[[3-[4-(3-hydroxyphenyl)-3,4-dimethyl-1-piperidinyl]-2-(cyclohexylmethyl)-1-oxo-propyl]amino]acetamide monohydrochloride monohydrate], the affinity in assay [1], expressed as Ki, was 0.4 nM. Moreover, in assay [1] (setting [4]), the inhibition at 0.01 µM was 100%. The inhibition at 0.1 µM in assay [1] (setting [6]) was 97%. In addition, in assay [2], the “Ratio (AD50 mouse writhing test / ED50 mouse diarrhea test)” value is recorded as 38 and the 50% effect level (ED50) was put at a dose of 0.14 mg/kg. The compound also displayed an AD50 in assay [3] of 5.3.

`CNC(=O)CNC(=O)C(CC1CCCCC1)CN1CC[C@@](C)(c2cccc(O)c2)[C@@H](C)C1` (relative stereo) [Example 32, N-[2-methylamino-2-oxoethyl]-3-[4-(3-hydroxphenyl)-3,4-dimethyl(-1-piperidinyl]-2-cyclohexylmethylpropanamidemonohydrochloride] gave a Ki in assay [1] of 0.72 nM. In addition, in assay [1] (setting [4]), the inhibition at 0.01 µM stood at 97%. The inhibition at 0.1 µM in assay [1] (setting [5]) stood at 100%. In addition, in assay [2], the “Ratio (AD50 mouse writhing test / ED50 mouse diarrhea test)” value came out at 45 and it took a dose of 0.16 mg/kg to reach the 50% effect level (ED50). The compound further came in with an AD50 in assay [3] of 7.3.

In the case of `C[C@H]1CN(CC(CC2CCCCC2)C(=O)NCC(N)=O)CC[C@@]1(C)c1cccc(O)c1` (relative stereo) [Example 33, 2-[[3-[4-(3-hydroxyphenyl)-3,4-dimethyl-1-piperidinyl]-2-(cyclohexylmethyl)-1-oxophenyl]amino]acetamide monohydrochloride], affinity in assay [1] was put at a Ki of 1.19 nM. For the same compound, in assay [1] (setting [4]), the inhibition at 0.01 µM is 95%. The inhibition at 0.1 µM in assay [1] (setting [5]) came to 100%. In assay [2], the “Ratio (AD50 mouse writhing test / ED50 mouse diarrhea test)” value is recorded as 60 and the ED50 came to 0.17 mg/kg. Besides, the AD50 in assay [3] was found to be 10.2.

In assay [1], `C[C@H]1CN(CC(CC2CCCCC2)C(=O)NCCC(=O)OCc2ccccc2)CC[C@@]1(C)c1cccc(O)c1` (relative stereo) [Example 34, 3-[[2-(cyclohexylmethyl)-1-oxo-3-[4-(3-hydroxyphenyl)-3,4-dimethyl-1-piperidinyl]propyl]-amino]propanoic acid phenylmethyl ester monohydrochloride] showed an inhibition constant (Ki) of 36.6 nM. The inhibition at 0.01 µM in assay [1] (setting [4]) came to 78%. Moreover, the inhibition at 0.1 µM in assay [1] (setting [6]) worked out at 97%. Moreover, in assay [2], the “Ratio (AD50 mouse writhing test / ED50 mouse diarrhea test)” value came to 84 and the ED50 worked out at 0.18 mg/kg. The AD50 in assay [3] worked out at 15.1.

(Values after patent US5250542A, “Peripherally selective piperidine carboxylate opioid antagonists” (Eli Lilly and Company, priority 1992, dated 1993).)
